Results reported in patent US20250302080A1, “SWEETNESS AND/OR FLAVOR ENHANCER” (AJINOMOTO CO., INC., priority 2022, published 2025).

Columns and labels:
[1] = Sensory evaluation of sweetness intensity in aspartame solution (Experimental Example 11); settings: added alone, 3.0 points or more
Procedure: A negative control aspartame solution (0.063 wt % aspartame solution) was prepared by dissolving aspartame in filtered water.
A sensory evaluation of sweetness intensity was performed for each sample by a panel of three experts according to the following evaluation criteria.
Sweetness intensity was evaluated by 0.0 to 10.0 points based on the following reference samples (negative control (hereinafter referred to as NC) (0.0 point); reference 1 (hereinafter referred to as R1) (5.0 points); reference 2 (hereinafter referred to as R2) (10.0 points)). The average score (rounded to two decimal places) of each expert panelist was calculated. An average score of 3.0 points or more was considered to be functional. • NC (0.0 point): 0.063 wt % aspartame solution (solvent: filtered water) • R1 (5.0 points): 0.066 wt % aspartame solution (solvent: filtered water) • R2 (10.0 points): 0.069 wt % aspartame solution (solvent: filtered water)

[2] = Sensory evaluation of orange flavor intensity in orange drink (Experimental Example 13); settings: added alone, 3.0 points or more
Procedure: A negative control orange drink was prepared by the same method as in Experimental Example 1.
A sensory evaluation of orange flavor intensity was performed for each sample by a panel of three experts according to the following evaluation criteria.
(§1) Orange flavor intensity was evaluated by 0.0 to 10.0 point based on the following reference samples (negative control (hereinafter referred to as NC) (0.0 point); reference 1 (hereinafter referred to as R1) (5.0 points); reference 2 (hereinafter referred to as R2) (10.0 points)). The average score (rounded to two decimal places) of each expert panelist was calculated. An average score of 3.0 points or more was considered to be functional. • NC (0.0 point): orange drink (trade name: Bireley's Orange) diluted 1.2 times with filtered water (i.e., negative control orange drink). • R1 (5.0 points): with 0.46 g of sucrose added per 99.54 g of NC. • R2 (10.0 points): with 0.92 g of sucrose added per 99.08 g of NC.

[3] = Sensory evaluation of sweetness intensity in orange drink (Experimental Examples 1-5); settings: added alone, score (average) of 3.0 points or more
Procedure: A negative control orange drink was prepared by diluting an orange drink (product name: Bireley's Orange, 20% wt % orange juice, Asahi Soft Drinks Co., Ltd.) 1.2 times with filtered water.
When the carbohydrate content of Bireley's Orange is calculated as the total sucrose content, the negative control orange drink contains 9.17 g of sucrose per 100 g.
A sensory evaluation of sweetness intensity was performed for each sample by a panel of four experts according to the following evaluation criteria.
as §1, with “Sweetness” for “Orange flavor”, “Orange, Asahi Soft Drinks Co., Ltd.)” for “Orange)”
A sensory evaluation of sweetness intensity was performed for each sample by a panel of four experts according to the same evaluation criteria as in Experimental Example 1.

[4] = Sensory evaluation of black tea au lait flavor intensity (Experimental Example 15); settings: added alone; for black tea au lait flavor-enhancing effect (in words): 0.0001-1000 ppb
Procedure: Instant black tea au lait powder (product name: Blendy (registered trademark) Stick Black Tea Au Lait (Ajinomoto AGF, Inc.)) was prepared according to the instructions, and then diluted 1.2 times with filtered water to prepare negative control black tea au lait.
When the carbohydrate content of Blendy (registered trademark) Stick Black Tea Au Lait is calculated as the total sucrose content, the negative control black tea au lait contains 5.2 g of sucrose per 100 g.
A sensory evaluation of sweetness intensity and black tea au lait flavor intensity was performed for each sample by a panel of three experts according to the following evaluation criteria.
Sweetness intensity and black tea au lait flavor intensity were each evaluated by 0.0 to 10.0 point based on the following reference samples (negative control (hereinafter referred to as NC) (0.0 point); reference 1 (hereinafter referred to as R1) (5.0 points); reference 2 (hereinafter referred to as R2) (10.0 points)). The average score (rounded to two decimal places) of each expert panelist was calculated. An average score of 3.0 points or more was considered to be functional. • NC (0.0 point): black tea au lait (product name: Black Tea Au Lait, Ajinomoto AGF, Inc.) prepared according to the instructions, and then diluted 1.2 times with filtered water (i.e., negative control black tea au lait). • R1 (5.0 points): with 0.26 g of sugar added per 99.74 g of NC. • R2 (10.0 points): with 0.52 g of sugar added per 99.48 g of NC.

[5] = Sensory evaluation of sweetness intensity in sucrose-containing cafe au lait (Experimental Examples 6-10); settings: added alone, 3.0 points or more
Procedure: The starting materials were mixed according to the blending rate in Table 6 to prepare a cafe au lait containing sucrose (hereinafter referred to as “negative control cafe au lait”).
A sensory evaluation of the presence or absence of sweetness intensity enhancement was performed for each sample by a panel of four experts according to the following evaluation criteria.
Sweetness intensity was evaluated by 0.0 to 10.0 point based on the following reference samples (negative control (hereinafter referred to as NC) (0.0 point); reference 1 (hereinafter referred to as R1) (5.0 points); reference 2 (hereinafter referred to as R2) (10.0 points)). The average score (rounded to two decimal places) of each expert panelist was calculated. An average score of 3.0 points or more was considered to be functional. • NC (0.0 point): cafe au lait prepared by mixing starting materials at the blending rate in Table 6 (i.e., negative control cafe au lait). • R1 (5.0 points): drink with 0.15 g of sucrose added per 99.85 g of NC. • R2 (10.0 points): drink with 0.30 g of sucrose added per 99.70 g of NC.
A sensory evaluation of sweetness intensity was performed for each sample by a panel of four experts according to the same evaluation criteria as in Experimental Example 6.
A sensory evaluation of the presence or absence of sweetness intensity enhancement was performed for each sample by a panel of four experts according to the same evaluation criteria as in Experimental Example 6.

In the case of `CC(C)CCC(=O)O` [4-methylpentanoic acid], the “concentration at which a sweetness-enhancing effect was confirmed” value [1] is reported as 100 ppb, the “concentration at which an orange flavor-enhancing effect was confirmed” value [2] is reported as at least 10 ppb and the “concentration at which a sweetness-enhancing effect was confirmed” value [3] is reported as at least 10 ppb. The “concentration at which a black tea au lait flavor-enhancing effect was confirmed” value ([4]; 3.0 points or more) was at least 1 ppb and the “concentration at which a sweetness-enhancing effect was confirmed” value [5] was at least 0.1 ppb.

For `CC1=C(O)C(=O)CC1` [cyclotene], the “concentration at which a sweetness-enhancing effect was confirmed” value [1] was 10 ppb, the “concentration at which an orange flavor-enhancing effect was confirmed” value [2] was at least 10 ppb and the “concentration at which a sweetness-enhancing effect was confirmed” value [3] was at least 0.1 ppb. The “black tea au lait flavor-enhancing effect (in words)” value [4] was “concentration-dependent black tea au lait flavor-enhancing effect” and the “concentration at which a sweetness-enhancing effect was confirmed” value [5] was at least 0.1 ppb.

In the case of `CCCCCCCCCC(=O)O` [decanoic acid], the “concentration at which a sweetness-enhancing effect was confirmed” value [1] is reported as 10 ppb, the “concentration at which an orange flavor-enhancing effect was confirmed” value [2] is reported as at least 0.01 ppb and the “concentration at which a sweetness-enhancing effect was confirmed” value [3] is reported as at least 0.1 ppb. The “black tea au lait flavor-enhancing effect (in words)” value [4] was “concentration-dependent black tea au lait flavor-enhancing effect” and the “concentration at which a sweetness-enhancing effect was confirmed” value [5] was at least 1 ppb.
